Reference: paper PMC4249827, “A Novel CMKLR1 Small Molecule Antagonist Suppresses CNS Autoimmune Inflammatory Disease” (PLoS ONE, 2014)
Like-named read-outs stand apart in the source and are kept apart here. Marks after values point to notes of the source that are not given here.

Experiments:
Thrombopoietin = test system: Thrombopoietin; parameters: method as in PubChem, 2014a; conditions: Cell-based; ref PubChem, 2014a; cited from earlier work
[1] = molecular target: G9a histone lysine methyltransferase; parameters: method as in PubChem, 2014b; ref 23; conditions: Purified enzyme; ref PubChem, 2014b; cited from earlier work
[2] = mouse
Cholinesterase = molecular target: Cholinesterase; parameters: method as in Sastry et al., 1988a; ref 19; conditions: Purified enzyme; ref Sastry et al., 1988a; cited from earlier work
CMKLR1 KO mice = test: EAE induced by active immunization in CMKLR1 KO mice; format: in vivo, mouse; conditions: 10 mg/kg daily s.c.
C57BL/6 mice [3] = test: Preliminary in vivo toxicity, daily s.c. dosing for 16 days; parameters: species or system mouse; conditions: s.c. daily for 16 days, doses up to at least 10 mg/kg per day
Source text: Given the lack of adverse reactions in vivo, we next sought to test α-NETA for in vivo efficacy in the EAE model of MS.
The mice were then euthanized and vital organs weighed. Each symbol represents an individual mouse, and the bars indicate mean ± SEM, n = 3 mice per group. […] Control mice received either captisol vehicle or no treatment. […] For days 1–15, n = 52 mice per group; for days 16–27, n = 24–25 mice per group. * p<0.05 by Mann-Whitney U test.

[4] = test system: Nuclear factor of activated T cells (NFAT); parameters: method as in PubChem, 2014a; conditions: Cell-based; ref PubChem, 2014a; cited from earlier work
[5] = within 5 min; depending on the temperature of incubation
GPR1 = GPR1 (Homo sapiens, UniProt P46091); test: β-arrestin2 (β-ARR2) assay, GPR1/CHO cells, chemerin-stimulated
Chain of GPR1 (P46091 whole entry, species assumed): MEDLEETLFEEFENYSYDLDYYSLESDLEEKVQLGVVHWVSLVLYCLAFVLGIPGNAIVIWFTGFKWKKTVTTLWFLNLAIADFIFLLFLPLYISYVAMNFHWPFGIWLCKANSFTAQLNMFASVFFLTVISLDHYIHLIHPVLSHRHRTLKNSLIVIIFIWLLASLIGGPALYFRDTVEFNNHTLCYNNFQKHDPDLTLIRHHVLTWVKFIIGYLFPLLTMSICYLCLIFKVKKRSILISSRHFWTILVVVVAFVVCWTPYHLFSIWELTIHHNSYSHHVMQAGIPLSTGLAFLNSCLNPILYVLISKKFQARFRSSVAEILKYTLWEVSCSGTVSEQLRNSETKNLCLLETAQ

[6] = test system: MPP8 chromodomain/methylated histones; parameters: method as in PubChem, 2014b; conditions: Purified protein (binding); ref PubChem, 2014b; cited from earlier work
Cytochrome p450 3A4 = conditions: cited from earlier work
[7] = test system: Marburg virus binding/entry; conditions: Cell-based; ref PubChem, 2014b; cited from earlier work
Vitamin D receptor = molecular target: Vitamin D receptor; parameters: method as in PubChem, 2014a; conditions: Purified protein (binding); ref PubChem, 2014a; cited from earlier work
[8] = molecular target: Bacillus subtilis Sfp phosphopantetheinyl transferase; parameters: method as in PubChem, 2014a; conditions: Purified enzyme; ref PubChem, 2014a; cited from earlier work
Cytochrome p450 2D6 = conditions: cited from earlier work
C57BL/6 mice [9] = test: EAE induced by adoptive transfer of MOG-reactive lymphocytes in C57BL/6 mice; format: in vivo, mouse
[10] = test system: Bacillus anthracis lethal toxin; conditions: Cell-based (process); ref PubChem, 2014a; cited from earlier work
[11] = test system: carnitine acetyletransferase; parameters: method as in PMID 3174803; conditions: cited from earlier work
mCMKLR1 = molecular target: T1, mCMKLR1 (Mus musculus, UniProt P97468); test: Transwell chemotaxis of mCMKLR1/L1.2 transfectants to chemerin
T1 sequence (P97468 1-371): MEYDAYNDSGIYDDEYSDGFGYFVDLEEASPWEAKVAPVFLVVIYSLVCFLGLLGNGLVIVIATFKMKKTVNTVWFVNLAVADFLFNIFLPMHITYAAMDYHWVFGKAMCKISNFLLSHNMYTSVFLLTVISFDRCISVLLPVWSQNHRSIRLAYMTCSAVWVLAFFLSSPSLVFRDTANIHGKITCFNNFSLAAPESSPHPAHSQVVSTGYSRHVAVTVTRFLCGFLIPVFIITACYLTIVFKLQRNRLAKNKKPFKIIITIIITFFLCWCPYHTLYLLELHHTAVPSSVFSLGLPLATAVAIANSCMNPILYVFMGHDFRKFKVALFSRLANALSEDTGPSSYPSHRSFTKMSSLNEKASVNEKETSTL

DNA re-replication = test system: DNA re-replication; parameters: method as in PubChem, 2014b; conditions: Cell-based (process); ref PubChem, 2014b; read-out: Agonist activity, EC50 (µM), DNA re-replication; cited from earlier work
IL-6/STAT signaling = test system: IL-6/STAT signaling; parameters: method as in PubChem, 2014a; conditions: Cell-based; ref PubChem, 2014a; cited from earlier work
C57BL/6 mice [12] = test: Histology and flow cytometry of CNS and spleen leukocytes in EAE mice (active immunization)
[13] = molecular target: Choline acetyltransferase; conditions: Purified enzyme; ref Sastry et al., 1988a; cited from earlier work
GPR154 = test system: GPR154; parameters: method as in PubChem, 2014b; ref 24; conditions: Cell-based (GPCR); neuropeptide S-induced signaling; ref PubChem, 2014b; cited from earlier work
Acetylcholinesterase = molecular target: Acetylcholinesterase; parameters: method as in Sastry et al., 1988a; ref 19; conditions: Purified enzyme; ref Sastry et al., 1988a; cited from earlier work
[14] = molecular target: 15-Hydroxyprostaglandin dehydrogenase; parameters: method as in PubChem, 2014b; conditions: Purified enzyme; ref PubChem, 2014b; cited from earlier work
C57BL/6 mice [15] = test: EAE induced by active immunization with MOG35-55/CFA in C57BL/6 mice; format: in vivo, mouse

C[N+](C)(C)CCC(=O)c1cccc2ccccc12.[I-] [α-NETA, 2-(α-naphthoyl)ethyltrimethylammonium iodide]
IC50 (Thrombopoietin): 2.5 µM
IC50 [1]: 0.5 µM
detection of parent compound after in vivo dosing ([2]; iv, 0.5 mg/kg): unable to detect any of the parent compound
detection of parent compound after in vivo dosing ([2]; sc, 10 mg/kg): unable to detect any of the parent compound
IC50 (Cholinesterase): 84 µM
disease incidence by day 20 (CMKLR1 KO mice; not statistically significant): 40%
Mean day of onset (SEM) (CMKLR1 KO mice; only animals that developed EAE, not significant (p = 0.18)): 14.3 (1.5) ^ns
in vivo tolerability (survival, weight gain, appearance, behavior, organ wet weight) (C57BL/6 mice [3]): well tolerated
IC50 [4]: 1.3 µM
parent compound no longer detectable by mass spectrometry after dissolution in 10% captisol [5]: 40–60%
IC50 (GPR1): 3.4 µM
fold less potent against GPR1 compared to activity against CMKLR1 (GPR1; β-arrestin2 assay): 10 fold
IC50 [6]: 10 µM
IC50 (Cytochrome p450 3A4): 0.2 µM
IC50 [7]: 4.5 µM
IC50 (Vitamin D receptor): 2 µM
IC50 [8]: 18 µM
IC50 (Cytochrome p450 2D6): ≥ 10 µM
suppression of clinical signs beyond first appearance of disease in control mice (C57BL/6 mice [9]; 10 mg/kg daily s.c.): completely suppressed clinical signs for an average of six days
severity of clinical disease (C57BL/6 mice [9]; 10 mg/kg daily s.c., day 15–19): significantly reduced
reduction of the incidence of EAE by day 24 (C57BL/6 mice [9]; 10 mg/kg daily s.c., did not reach statistical significance): ~25%
ability of MOG-reactive lymphocytes from treated donor mice to induce EAE by passive transfer (C57BL/6 mice [9]; donor mice treated once daily for ten days): fully capable of inducing EAE by passive transfer
IC50 [10]: 25 µM
activity against carnitine acetyletransferase [11]: inactive
IC50 (mCMKLR1): 5 ± 0.4 µM
EC50 (DNA re-replication): 1.8 µM
IC50 (IL-6/STAT signaling): 6.3 µM
total cells in the spleen (C57BL/6 mice [12]; 16 days p.i., did not reach statistical significance): more total cells in the spleen
total cells in the CNS (C57BL/6 mice [12]; 16 days p.i., p<0.05): fewer total cells in the CNS
total numbers of splenic NK cells (C57BL/6 mice [12]; EAE mice, not shown): did not induce detectable changes
numbers of CNS lesions (C57BL/6 mice [12]; chronic EAE, day 37 p.i., data not shown): no differences in numbers of CNS lesions
leukocyte accumulation within the CNS (T cells, B cells, dendritic cells, macrophages) (C57BL/6 mice [12]; day 16 p.i., no apparent preferential or selective effect on subsets): suppressed leukocyte accumulation
meningeal and parenchymal CNS inflammatory foci (C57BL/6 mice [12]; peak acute EAE, day 16 p.i.): fewer meningeal and parenchymal CNS inflammatory foci
% of NK cells (CD3-NK1.1+) in lymphocyte scatter gate (C57BL/6 mice [12]; spleen, day 16 post-EAE induction, n = 5 mice per group): 0.8 (0.1) ^* %
IC50 [13]: 9 µM
IC50 (GPR154): 32 µM
IC50 (Acetylcholinesterase): 300 µM
IC50 [14]: 14 µM
mice that did not develop clinical EAE by day 27 (C57BL/6 mice [15]; 10 mg/kg daily s.c.): ~30%
suppression of clinical signs beyond first appearance of disease in control mice (C57BL/6 mice [15]; 10 mg/kg daily s.c.): completely suppressed clinical signs for an average of nine days
severity of clinical disease (C57BL/6 mice [15]; 10 mg/kg daily s.c., through day 25): significantly reduced
onset of EAE (C57BL/6 mice [15]; doses as low as 3 mg/kg daily s.c., not shown): significantly delayed the onset of EAE
effect on ongoing clinical EAE (C57BL/6 mice [15]; treatment initiated upon onset of clinical signs, data not shown): failed to reverse ongoing clinical EAE
